Data taken from publication PMC11790660 (Frontiers in Chemistry, 2025).

How the values were obtained:
[1] = test system: HepG2 cell lines (liver tumor cell)
[2] = test system: HepG2 cell lines (liver tumor cell); assay: cells; conditions: Homo sapiens, HepG2, 24 h, read-out: IC50 HepG2
[3] = test system: IL-10 level in RAW264.7 cells; assay: ELISA, IL-10 in RAW264.7; format: cell-based, Mouse; conditions: RAW264.7, 24 h
[4] = test system: WI38 normal cells; assay: cells; conditions: Homo sapiens, WI-38, read-out: IC50 WI38
[5] = test system: LO2 cell lines (normal liver cell); assay: cells; conditions: Homo sapiens, L02, 24 h, read-out: IC50 LO2
[6] = test system: A549; assay: cells; format: cell-based; conditions: Homo sapiens, A549, read-out: IC50 against cell proliferation, A549
[7] = molecular target: PI3Kγ (Homo sapiens, UniProt P48736); assay: In vitro PI3K enzyme inhibitory assay (ADP-Glo), PI3Kγ; format: biochemical; conditions: read-out: PI3Kγ % inhibition at 10 μM
[8] = test system: WI38 normal cells
[9] = test system: HO-1 levels in RAW264.7 cells; assay: ELISA, HO-1 in RAW264.7; format: cell-based, Mouse; conditions: RAW264.7, 24 h
[10] = test system: HeLa; assay: cells; format: cell-based; conditions: Homo sapiens, HeLa, read-out: IC50 against cell proliferation, HeLa
[11] = test system: nitrite production in RAW264.7 cells; assay: Griess assay, LPS-induced nitrite production in RAW264.7; format: cell-based; conditions: Mus musculus, 24 h, 1 mg/mL LPS
Text: Nitric oxide (NO) affects inflammation signaling pathways, regulating the intensity and timing of inflammatory responses, making it a crucial regulatory molecule in inflammation. LPS induces the production of nitric oxide (NO) by activating a series of signal transduction pathways. Upon NF-κB activation, transcription of the iNOS gene is promoted, leading to the synthesis of inducible nitric oxide synthase (iNOS). iNOS is an enzyme that produces large amounts of NO, activated under inflammatory conditions to release substantial nitric oxide ([Kumar, 2023]). In vivo, NO is easily oxidized by superoxide ions to generate nitrites. Studies have shown that H2S not only acts to scavenge peroxides but also undergoes chemical reactions with NO, forming novel nitrosylthiol compounds. We assess the anti-inflammatory activity of compounds by measuring nitrite production ([Somensi et al., 2019]).
The Griess assay is used to measure nitrite levels in biological samples, both in vivo and in vitro. See Supplementary Material for more details ([Kumar, 2023]).
The Griess assay is used to measure nitrite levels in biological samples, both in vivo and in vitro. […] The absorbance is measured at a wavelength of 540-550 nanometers, and the concentration of the red product is directly proportional to the absorbance. Nitrite concentrations can be calculated using a standard curve.

[12] = test system: LO2 cell lines (normal liver cell)
[13] = molecular target: PI3Kα (Homo sapiens, UniProt P42336); assay: In vitro PI3K enzyme inhibitory assay (ADP-Glo), PI3Kα; format: biochemical; conditions: read-out: PI3Kα % inhibition at 10 μM
[14] = test system: TNF-α levels in RAW264.7 cells; assay: ELISA, LPS-mediated TNF-α in RAW264.7; format: cell-based, Mouse; conditions: LPS-induced RAW264.7, 24 h, vs control group
[15] = test system: AKT; assay: In vitro AKT enzyme inhibitory assay; format: biochemical
[16] = H2S release, methylene blue (MB+) method; format: physicochemical; conditions: MB+ method with TECP or cysteine; different temperature and pH
[17] = test system: RAW264.7 macrophage cells; assay: CCK-8 cell viability, RAW264.7 macrophages; format: cell-based, Mouse; conditions: 24 h
Procedure: To obtain more accurate anti-inflammatory results and minimize the impact of cell death caused by the test compounds on the outcomes, we first evaluated the effects of the compounds on RAW264.7 macrophage viability. The cells were divided into two groups: one treated with […] LPS and the other untreated. Macrophages were exposed to compounds at concentrations of 10, 50, and 100 μM for 24 h, followed by cell viability measurement using the CCK-8 assay ([Huang et al., 2022]; [Flannigan and Wallace, 2015]; [Citi et al., 2020]; [Gemici and Wallace, 2015]). […] In the presence of LPS stimulation, a slight reduction of 11% cell activity was observed.
The CCK-8 assay is a commonly used method for assessing cell viability, based on cellular metabolic activity. […]
The CCK-8 assay is a commonly used method for assessing cell viability, based on cellular metabolic activity. […] The culture plate is then incubated in a suitable incubator for a defined period (usually 4 hours), followed by measuring the absorbance of each group's culture medium using a spectrophotometer, typically at a wavelength of 450 nanometers. Cell relative activity or viability is calculated based on absorbance values, often by subtracting the background absorbance from the control group's values and normalizing to the control group's values to obtain relative activity or viability.

[18] = test system: MCF-7; assay: cells; format: cell-based; conditions: Homo sapiens, MCF7, read-out: IC50 against cell proliferation, MCF-7
[19] = molecular target: PI3Kβ (Homo sapiens, UniProt P42338); assay: In vitro PI3K enzyme inhibitory assay (ADP-Glo), PI3Kβ; format: biochemical; conditions: read-out: PI3Kβ % inhibition at 10 μM
Sequence of PI3Kβ (P42338 whole entry): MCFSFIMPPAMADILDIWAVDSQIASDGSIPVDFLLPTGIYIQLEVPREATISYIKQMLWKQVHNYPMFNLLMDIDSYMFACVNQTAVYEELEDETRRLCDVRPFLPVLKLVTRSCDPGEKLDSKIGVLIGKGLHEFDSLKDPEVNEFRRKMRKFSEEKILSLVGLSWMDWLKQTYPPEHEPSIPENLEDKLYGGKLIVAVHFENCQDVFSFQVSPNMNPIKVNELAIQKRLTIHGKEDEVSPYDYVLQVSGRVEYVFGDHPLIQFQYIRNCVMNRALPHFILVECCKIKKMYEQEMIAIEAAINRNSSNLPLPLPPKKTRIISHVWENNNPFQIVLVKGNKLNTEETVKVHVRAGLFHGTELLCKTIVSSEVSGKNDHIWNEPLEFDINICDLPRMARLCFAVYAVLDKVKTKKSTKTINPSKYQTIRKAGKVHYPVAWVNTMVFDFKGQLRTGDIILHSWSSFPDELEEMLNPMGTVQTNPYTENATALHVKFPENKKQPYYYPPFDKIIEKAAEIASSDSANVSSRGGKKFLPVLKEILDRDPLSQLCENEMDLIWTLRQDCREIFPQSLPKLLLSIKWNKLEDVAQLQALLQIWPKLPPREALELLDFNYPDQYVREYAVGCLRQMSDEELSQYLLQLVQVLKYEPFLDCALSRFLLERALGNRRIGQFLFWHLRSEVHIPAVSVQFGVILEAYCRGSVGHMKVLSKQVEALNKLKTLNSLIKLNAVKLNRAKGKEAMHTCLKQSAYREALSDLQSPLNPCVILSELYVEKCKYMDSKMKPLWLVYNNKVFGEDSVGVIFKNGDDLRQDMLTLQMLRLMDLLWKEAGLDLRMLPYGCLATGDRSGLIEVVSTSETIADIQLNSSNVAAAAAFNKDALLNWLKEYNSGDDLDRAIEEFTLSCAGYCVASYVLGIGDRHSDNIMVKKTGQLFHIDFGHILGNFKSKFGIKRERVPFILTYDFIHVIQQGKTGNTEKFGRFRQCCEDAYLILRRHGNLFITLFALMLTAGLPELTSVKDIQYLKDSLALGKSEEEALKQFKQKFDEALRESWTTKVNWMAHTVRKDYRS
Sequence of PI3Kβ (P27986 whole entry partner): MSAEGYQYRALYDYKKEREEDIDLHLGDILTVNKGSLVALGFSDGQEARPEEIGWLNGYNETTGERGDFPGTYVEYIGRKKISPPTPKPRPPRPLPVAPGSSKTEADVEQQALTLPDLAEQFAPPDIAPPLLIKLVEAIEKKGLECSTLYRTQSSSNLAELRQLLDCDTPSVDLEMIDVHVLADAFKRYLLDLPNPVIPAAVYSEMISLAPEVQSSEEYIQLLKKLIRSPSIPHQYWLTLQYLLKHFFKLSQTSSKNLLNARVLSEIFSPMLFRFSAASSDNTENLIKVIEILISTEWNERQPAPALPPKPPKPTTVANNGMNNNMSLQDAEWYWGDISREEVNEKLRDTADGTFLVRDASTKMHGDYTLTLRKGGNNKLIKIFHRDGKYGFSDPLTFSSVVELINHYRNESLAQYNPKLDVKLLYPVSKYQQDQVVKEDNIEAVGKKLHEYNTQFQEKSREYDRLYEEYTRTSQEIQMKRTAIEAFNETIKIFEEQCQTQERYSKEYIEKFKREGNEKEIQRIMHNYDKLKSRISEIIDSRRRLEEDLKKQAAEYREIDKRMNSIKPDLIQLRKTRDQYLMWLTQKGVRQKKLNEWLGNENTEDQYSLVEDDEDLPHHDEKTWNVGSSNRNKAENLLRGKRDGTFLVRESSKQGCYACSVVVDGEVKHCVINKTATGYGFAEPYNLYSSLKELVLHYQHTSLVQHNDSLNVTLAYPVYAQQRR

Sequence of PI3Kγ (P48736 whole entry): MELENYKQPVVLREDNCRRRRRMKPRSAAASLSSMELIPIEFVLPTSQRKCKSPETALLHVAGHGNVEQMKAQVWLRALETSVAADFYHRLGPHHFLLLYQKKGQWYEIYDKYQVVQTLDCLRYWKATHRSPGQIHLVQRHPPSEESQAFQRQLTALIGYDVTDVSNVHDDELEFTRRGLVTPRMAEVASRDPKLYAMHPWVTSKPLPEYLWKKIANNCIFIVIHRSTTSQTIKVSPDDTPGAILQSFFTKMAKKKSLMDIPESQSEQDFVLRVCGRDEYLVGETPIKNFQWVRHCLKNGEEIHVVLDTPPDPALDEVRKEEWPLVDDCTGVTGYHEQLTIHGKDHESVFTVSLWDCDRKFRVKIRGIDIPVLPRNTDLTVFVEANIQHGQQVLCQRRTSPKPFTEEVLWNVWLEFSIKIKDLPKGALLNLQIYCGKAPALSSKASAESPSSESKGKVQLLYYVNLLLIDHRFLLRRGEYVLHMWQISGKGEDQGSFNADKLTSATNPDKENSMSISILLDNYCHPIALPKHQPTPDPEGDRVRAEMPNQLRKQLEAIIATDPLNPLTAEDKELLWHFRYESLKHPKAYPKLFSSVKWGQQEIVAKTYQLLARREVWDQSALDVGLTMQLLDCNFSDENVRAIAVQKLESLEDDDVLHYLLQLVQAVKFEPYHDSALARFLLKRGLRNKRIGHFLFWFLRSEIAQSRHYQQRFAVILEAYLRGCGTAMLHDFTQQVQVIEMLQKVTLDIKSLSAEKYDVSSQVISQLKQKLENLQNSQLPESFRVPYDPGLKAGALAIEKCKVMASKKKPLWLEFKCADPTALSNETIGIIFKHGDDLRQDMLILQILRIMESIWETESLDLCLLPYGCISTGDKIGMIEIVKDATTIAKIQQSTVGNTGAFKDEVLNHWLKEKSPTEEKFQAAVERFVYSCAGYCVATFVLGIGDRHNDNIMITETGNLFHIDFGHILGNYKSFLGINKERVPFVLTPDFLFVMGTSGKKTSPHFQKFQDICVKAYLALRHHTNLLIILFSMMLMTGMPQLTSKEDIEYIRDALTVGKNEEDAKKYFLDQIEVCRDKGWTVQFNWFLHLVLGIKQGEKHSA
Sequence of PI3Kα (P42336 whole entry): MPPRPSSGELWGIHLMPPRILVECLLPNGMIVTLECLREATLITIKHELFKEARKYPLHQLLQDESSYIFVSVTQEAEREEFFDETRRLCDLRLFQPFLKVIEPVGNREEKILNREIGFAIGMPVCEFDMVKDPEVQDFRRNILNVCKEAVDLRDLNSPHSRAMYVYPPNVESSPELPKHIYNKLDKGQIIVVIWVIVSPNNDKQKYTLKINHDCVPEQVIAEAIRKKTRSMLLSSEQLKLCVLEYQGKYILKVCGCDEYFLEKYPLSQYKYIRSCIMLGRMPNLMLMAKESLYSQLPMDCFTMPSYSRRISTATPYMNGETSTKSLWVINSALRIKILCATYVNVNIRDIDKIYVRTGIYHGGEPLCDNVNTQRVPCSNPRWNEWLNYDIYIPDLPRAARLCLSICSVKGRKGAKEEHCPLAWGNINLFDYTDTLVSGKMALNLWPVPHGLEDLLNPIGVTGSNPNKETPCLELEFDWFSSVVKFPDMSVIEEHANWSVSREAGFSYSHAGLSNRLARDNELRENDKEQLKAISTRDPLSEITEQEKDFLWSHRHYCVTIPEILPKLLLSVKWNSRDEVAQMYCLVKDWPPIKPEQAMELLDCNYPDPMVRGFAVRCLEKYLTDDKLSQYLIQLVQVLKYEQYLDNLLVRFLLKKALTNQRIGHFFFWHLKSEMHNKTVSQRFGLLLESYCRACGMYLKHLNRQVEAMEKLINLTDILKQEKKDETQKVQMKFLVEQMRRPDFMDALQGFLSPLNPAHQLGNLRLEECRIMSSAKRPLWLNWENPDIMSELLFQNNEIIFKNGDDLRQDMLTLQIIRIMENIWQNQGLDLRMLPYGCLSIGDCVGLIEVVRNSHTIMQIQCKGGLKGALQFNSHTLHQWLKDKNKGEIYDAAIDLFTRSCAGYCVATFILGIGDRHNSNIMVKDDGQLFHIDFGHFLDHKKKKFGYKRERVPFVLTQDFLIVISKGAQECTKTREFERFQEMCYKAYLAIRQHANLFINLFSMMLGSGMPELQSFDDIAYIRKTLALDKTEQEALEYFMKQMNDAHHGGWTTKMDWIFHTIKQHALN
Sequence of PI3Kα (P27986 whole entry partner): as the sequence (P27986 whole entry partner) above

O=[N+]([O-])c1ccc2c(c1)NP(=S)(c1ccccc1)O2 (centres unmarked) [Compound S11, 5-nitro-2-phenyl-3H-benzo [d][1,3,2] oxazaphosphole 2-sulfide]
Toxicity in words, HepG2 [1]: low cytotoxicity | IC50 [2]: > 400 µM | Induction level of IL-10 relative to control group [3]: three times that of the control group | IC50 [4]: > 200 µM | IC50 [5]: > 200 µM | IC50 [6]: 294 ± 16.6 µM | inhibition at 10 µM [7]: 45% | Toxicity in words, WI38 [8]: low cytotoxicity | HO-1 expression relative to control group [9]: approximately twice the level of the control group | IC50 [10]: 260 ± 7.6 µM | inhibition at 100 µM [11]: ~75% | Toxicity in words, LO2 [12]: low cytotoxicity | inhibition at 10 µM [13]: 67% | Decrease of TNF-α induction level [14]: 80% | AKT % inhibition at 10 μM [15]: 61% | H2S release amount (in words) [16]: the highest amount of hydrogen sulfide was released | Effect on RAW264.7 cell growth ([17]; absence of LPS, 10, 50, 100 μM): no significant effect on cell growth | Reduction of RAW264.7 cell activity ([17]; presence of LPS stimulation, 10, 50, 100 μM): 11% | IC50 [18]: 23 ± 3.2 µM | inhibition at 10 µM [19]: 75%
